From PubChem BioAssay AID367 (MTDP, 2006)
Activity calls are given as the source filed them. The rule behind the calls is not given here.

Biological target: Gag-Pol polyprotein (Human immunodeficiency virus type 2 subtype A (isolate ROD)) (UniProt P04584)
Experiment: Ribonuclease H inhibitors of HIV-2 reverse transcriptase, biochemical dose response (AID 367)
Settings: HIV-2 RNase H, FRET RNA/DNA substrate cleavage

Sequence of Gag-Pol polyprotein (Human immunodeficiency virus type 2 subtype A (isolate ROD)) (P04584 whole entry, looked up): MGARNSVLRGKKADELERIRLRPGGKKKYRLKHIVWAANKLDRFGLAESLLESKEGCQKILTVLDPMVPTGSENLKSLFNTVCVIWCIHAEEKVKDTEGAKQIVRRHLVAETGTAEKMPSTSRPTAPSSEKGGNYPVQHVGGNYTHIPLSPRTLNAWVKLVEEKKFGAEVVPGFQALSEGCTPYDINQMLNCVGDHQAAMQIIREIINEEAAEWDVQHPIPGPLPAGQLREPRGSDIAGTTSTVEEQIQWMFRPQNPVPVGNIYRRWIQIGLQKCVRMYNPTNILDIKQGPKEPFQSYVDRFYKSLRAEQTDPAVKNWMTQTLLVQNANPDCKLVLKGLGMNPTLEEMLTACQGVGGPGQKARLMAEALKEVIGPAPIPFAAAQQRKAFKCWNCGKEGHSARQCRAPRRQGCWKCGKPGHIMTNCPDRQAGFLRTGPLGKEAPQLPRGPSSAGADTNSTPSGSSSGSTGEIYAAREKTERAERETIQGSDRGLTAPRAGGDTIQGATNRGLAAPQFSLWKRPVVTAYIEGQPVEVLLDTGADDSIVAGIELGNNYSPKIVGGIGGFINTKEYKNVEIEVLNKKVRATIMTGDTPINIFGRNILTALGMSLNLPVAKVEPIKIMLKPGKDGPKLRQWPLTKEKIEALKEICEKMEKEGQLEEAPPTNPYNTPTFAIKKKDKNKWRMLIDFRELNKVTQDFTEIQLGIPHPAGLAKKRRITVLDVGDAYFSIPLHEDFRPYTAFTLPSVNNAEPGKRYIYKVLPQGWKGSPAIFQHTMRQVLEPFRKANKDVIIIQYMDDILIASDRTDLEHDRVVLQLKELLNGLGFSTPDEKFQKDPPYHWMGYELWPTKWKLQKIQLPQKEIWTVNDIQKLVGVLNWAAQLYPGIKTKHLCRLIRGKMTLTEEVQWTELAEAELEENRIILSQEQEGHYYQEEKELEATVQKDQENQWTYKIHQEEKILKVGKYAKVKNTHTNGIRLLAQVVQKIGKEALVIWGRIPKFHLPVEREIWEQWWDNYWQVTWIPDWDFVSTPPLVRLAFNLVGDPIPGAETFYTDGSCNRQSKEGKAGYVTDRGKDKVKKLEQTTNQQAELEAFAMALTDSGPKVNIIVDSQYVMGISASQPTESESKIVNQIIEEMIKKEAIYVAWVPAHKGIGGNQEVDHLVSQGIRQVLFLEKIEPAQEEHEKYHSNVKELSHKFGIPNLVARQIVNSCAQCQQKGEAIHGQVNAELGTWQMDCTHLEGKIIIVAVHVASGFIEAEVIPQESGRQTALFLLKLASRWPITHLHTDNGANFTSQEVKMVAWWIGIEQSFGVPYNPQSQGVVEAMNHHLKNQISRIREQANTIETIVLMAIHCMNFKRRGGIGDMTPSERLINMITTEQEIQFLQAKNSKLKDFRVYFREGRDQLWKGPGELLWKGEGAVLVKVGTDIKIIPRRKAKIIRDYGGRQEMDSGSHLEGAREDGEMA

Row | IC50 | SMILES
1 | inactive | Nc1nc(Sc2ccc([N+](=O)[O-])c3nonc23)c2[nH]cnc2n1
2 | 1700 nM | O=C1NC(=S)N(c2ccc(Cl)cc2)C(=O)/C1=C/c1ccc(Br)o1
3 | 700 nM | COc1ccc(-c2c(C#N)c(N)nc(SCC(=O)c3ccc(O)c(O)c3)c2C#N)cc1
4 | 3000 nM | O=c1c(O)c(-c2cc(O)c(O)c(O)c2)oc2cc(O)cc(O)c12
5 | inactive | Oc1ccc2ccccc2c1C=NCc1c(O)ccc2ccccc12
